Reference: ChEMBL document CHEMBL1145438, “Synthesis and matrix metalloproteinase (MMP)-12 inhibitory activity of ageladine A and its analogs” (Bioorg Med Chem Lett, 2007)

Target: Macrophage metalloelastase (Homo sapiens, UniProt P39900)
Test: Inhibition of MMP12

Sequence of Macrophage metalloelastase (P39900 whole entry): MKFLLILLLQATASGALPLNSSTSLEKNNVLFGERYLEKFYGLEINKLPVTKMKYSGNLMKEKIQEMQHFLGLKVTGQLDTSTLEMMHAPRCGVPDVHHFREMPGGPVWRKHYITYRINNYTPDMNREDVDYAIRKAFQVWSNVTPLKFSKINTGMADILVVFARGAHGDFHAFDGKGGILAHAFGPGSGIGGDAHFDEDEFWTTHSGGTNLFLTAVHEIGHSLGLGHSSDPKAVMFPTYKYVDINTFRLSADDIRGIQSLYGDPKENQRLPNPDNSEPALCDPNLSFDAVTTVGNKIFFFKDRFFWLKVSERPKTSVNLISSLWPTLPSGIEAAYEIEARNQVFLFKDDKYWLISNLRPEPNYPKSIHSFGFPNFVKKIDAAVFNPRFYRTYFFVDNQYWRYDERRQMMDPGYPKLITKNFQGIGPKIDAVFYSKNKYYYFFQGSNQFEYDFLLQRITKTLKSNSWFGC

An IC50 of over 100 µM was found for `CNc1nc2c(-c3cc(Br)c(Br)[nH]3)nccc2n1C` in this work.

An IC50 of over 100 µM was found for `CN(C)c1nc2c(-c3cc(Br)c(Br)[nH]3)nccc2[nH]1` in this work.

An IC50 of over 100 µM was found for `Nc1nc2c(-c3ccc[nH]3)nccc2[nH]1` in this work.

An IC50 of over 100 µM was found for `Cn1c(-c2nccc3[nH]c(N)nc23)cc(Br)c1Br` in this work.

An IC50 of over 100 µM was found for `Nc1nc2c(-c3cc(Br)c[nH]3)nccc2[nH]1` in this work.

An IC50 of 56.9 µM was found for `Cn1c(N)nc2c(-c3cc(Br)c(Br)[nH]3)nccc21` in this work.

An IC50 of 43.6 µM was found for `Brc1cc(-c2nccc3[nH]cnc23)[nH]c1Br` in this work.

An IC50 of 10.4 µM was found for `CNc1nc2c(-c3cc(Br)c(Br)[nH]3)nccc2[nH]1` in this work.

An IC50 of over 100 µM was found for `Nc1nc2c(-c3ccc(Br)[nH]3)nccc2[nH]1` in this work.

An IC50 of 3.66 µM was found for `Nc1nc2c(-c3cc(Br)c(Br)[nH]3)nccc2[nH]1` [AGELADINE A] in this work.
